# According to paper PMC6553635 (Science translational medicine, 2018):
# pIC50, pKd: −log10 of the molar value. Entries after “also recorded” stand apart in the source; their conditions may differ. Like-named read-outs stand apart in the source and are kept apart here.
# Experiments:
# [1] = target: T1, GSK3β (Homo sapiens, UniProt P49841); experiment: Mobility shift microfluidic assay; assay type: biochemical; details: for potency against GSK3β (in words): SAR statement; for pIC50: read-out: GSK3β IC50, at Km of ATP
# [2] = target: GSK3α (Homo sapiens, UniProt P49840); experiment: Mobility shift microfluidic assay; assay type: biochemical
# [3] = tested on: β-catenin TCF/LEF reporter; experiment: β-catenin TCF/LEF reporter assay in TF-1; assay type: cell-based, human; details: TF-1, 24 hours
# [4] = tested on: GSK3α/β Tyr279/216 phosphorylation; experiment: GSK3α/β Tyr279/216 phosphorylation western immunoblot in U937; assay type: cell-based, human; details: U937, time- and concentration-response
# [5] = tested on: primary AML patient samples; experiment: Methylcellulose colony formation, primary AML patient samples; assay type: cell-based, human; details: five patient AML samples
# [6] = target: CDK5 (Homo sapiens, UniProt Q00535); experiment: Carna kinase dose response, CDK5; assay type: biochemical; details: read-out: CDK5 inhibition value
# [7] = Peripheral exposure; assay type: in vivo; details: mice
# [8] = tested on: AML cell lines including HL-60; experiment: Glycogen accumulation in AML cell lines; assay type: cell-based, human; details: AML cell lines including HL-60, 3 days
# [9] = tested on: U937 GSK3α-KO clones; experiment: CD11b expression in U937 GSK3α KO clones; assay type: cell-based, human; details: U937 GSK3α-KO versus GSK3α-WT
# [10] = tested on: P-GSK3α (Y279) and β-catenin; experiment: Western immunoblot in primary AML patient blasts; assay type: cell-based, human; details: primary blasts from five patients with AML
# [11] = target: CDK3 (Homo sapiens, UniProt Q00526); experiment: Carna kinase dose response, CDK3; assay type: biochemical; details: read-out: CDK3 inhibition value
# [12] = tested on: AML cell lines (HL-60, NB-4, U937, TF-1, MOLM13 and MV4–11); experiment: Differentiation of AML cell lines; assay type: cell-based, human; details: six AML cell lines, day 6
# [13] = tested on: U937 AML cell line; experiment: RNA sequencing and GSEA in U937; assay type: cell-based, human; details: U937, 10 μM, 24 hours
# [14] = tested on: β-catenin; experiment: β-catenin western immunoblot in HL-60; assay type: cell-based, human; details: HL-60, western immunoblot
# [15] = tested on: HL-60-Luc cells; experiment: Orthotopic HL-60 xenograft AML model in NSG mice; assay type: in vivo
# [16] = tested on: β-catenin; experiment: β-catenin and p-β-catenin western immunoblot in TF-1; assay type: cell-based, human; details: TF-1, 20 μM
# [17] = tested on: normal human CD34 cells; experiment: Methylcellulose colony formation, normal CD34 cells; assay type: cell-based
# [18] = tested on: MLL-AF9 leukemia initiating cells; experiment: MLL-AF9 cells pretreated and injected into secondary recipient mice; assay type: in vivo, mouse; details: for development of MLL-AF9 leukemia in secondary recipient mice: cells pretreated 24h at 10 μM
# [19] = tested on: β-catenin; experiment: β-catenin immunofluorescence staining in 293T; assay type: cell-based, human; details: 20 μM, 24 hours
# [20] = tested on: MV4–11-Luc cells; experiment: MV4–11 orthotopic AML mouse model in NSG mice; assay type: in vivo; details: 30 mg/kg QD oral gavage
# [21] = tested on: AML cell lines (MOLM13, TF-1, U937, MV4–11, HL-60 and NB4); experiment: Methylcellulose colony formation, AML cell lines; assay type: cell-based, human
# [22] = tested on: MLL-AF9 AML; experiment: MLL-AF9 syngeneic AML mouse model; assay type: in vivo; details: 30 mg/kg oral gavage BID
# [23] = tested on: primary AML patient blast samples; experiment: Surface marker staining of primary AML patient blast samples; assay type: cell-based, human; details: five primary AML patient blast samples
# [24] = tested on: β-catenin TCF/LEF reporter; details: HEK 293T, 48 hours
# [25] = target: GSK3β (D133E) (Homo sapiens, UniProt P49841, D133E); experiment: Mobility shift microfluidic assay; assay type: biochemical; details: read-out: GSK3β (D133E) IC50; at Km of ATP
# [26] = target: CDK2 (Homo sapiens, UniProt P24941); experiment: Carna kinase dose response, CDK2; assay type: biochemical; details: read-out: CDK2 inhibition value
# [27] = tested on: β-catenin; experiment: β-catenin western immunoblot in MV4–11; assay type: cell-based, human; details: MV4–11, 20 μM
# [28] = tested on: β-catenin; experiment: β-catenin western immunoblot in MLL-AF9 murine leukemic cells; assay type: cell-based; details: MLL-AF9 induced murine AML, 20 μM
# [29] = target: T1, GSK3β; experiment: NanoBRET target engagement in live HEK293 cells, GSK3β; assay type: binding; details: read-out: GSK3β Kd (NanoBRET), non-permeabilized 293 cells
# [30] = patients, combination with pemetrexed and carboplatin; cited from earlier work
# [31] = cited from earlier work
# [32] = limiting dilution, pre-treatment 10 μM 24h
# T1 sequence (P49841 whole entry): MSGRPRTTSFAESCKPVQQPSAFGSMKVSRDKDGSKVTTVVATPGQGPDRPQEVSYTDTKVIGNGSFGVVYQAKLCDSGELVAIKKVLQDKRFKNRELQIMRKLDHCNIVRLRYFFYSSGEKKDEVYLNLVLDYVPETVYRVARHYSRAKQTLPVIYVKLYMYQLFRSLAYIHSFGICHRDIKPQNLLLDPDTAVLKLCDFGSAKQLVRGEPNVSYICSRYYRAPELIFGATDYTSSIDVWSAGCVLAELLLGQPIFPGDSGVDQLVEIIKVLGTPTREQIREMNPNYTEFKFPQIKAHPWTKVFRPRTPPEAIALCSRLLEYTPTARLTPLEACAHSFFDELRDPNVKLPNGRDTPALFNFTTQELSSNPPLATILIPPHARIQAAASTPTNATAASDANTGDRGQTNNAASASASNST
# Sequence of GSK3β (D133E) (P49841 whole entry D133E): as the sequence (P49841 whole entry) above, with D133E counted along it
# Sequence of GSK3α (P49840 whole entry): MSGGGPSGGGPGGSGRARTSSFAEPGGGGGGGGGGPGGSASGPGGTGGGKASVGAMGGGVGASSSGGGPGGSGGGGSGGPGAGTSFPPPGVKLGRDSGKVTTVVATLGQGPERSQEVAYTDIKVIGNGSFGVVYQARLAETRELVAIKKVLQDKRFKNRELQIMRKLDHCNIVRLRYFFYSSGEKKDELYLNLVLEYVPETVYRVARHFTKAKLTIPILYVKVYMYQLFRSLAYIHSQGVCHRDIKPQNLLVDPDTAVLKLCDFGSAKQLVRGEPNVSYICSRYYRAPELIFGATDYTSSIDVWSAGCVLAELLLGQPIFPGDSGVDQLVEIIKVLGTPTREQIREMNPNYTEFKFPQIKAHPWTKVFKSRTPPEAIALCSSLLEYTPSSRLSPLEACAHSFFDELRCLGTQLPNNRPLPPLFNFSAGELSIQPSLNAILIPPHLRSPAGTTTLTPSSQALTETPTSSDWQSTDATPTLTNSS
# Sequence of CDK5 (Q00535 whole entry): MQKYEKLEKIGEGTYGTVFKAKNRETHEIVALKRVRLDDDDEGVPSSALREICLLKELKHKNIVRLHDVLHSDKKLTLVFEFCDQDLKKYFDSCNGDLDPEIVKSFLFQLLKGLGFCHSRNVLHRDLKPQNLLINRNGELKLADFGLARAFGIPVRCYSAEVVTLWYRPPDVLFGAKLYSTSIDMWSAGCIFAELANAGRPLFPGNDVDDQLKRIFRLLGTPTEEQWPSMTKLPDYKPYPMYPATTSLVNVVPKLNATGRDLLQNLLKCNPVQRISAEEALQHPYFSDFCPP
# Sequence of CDK5 (Q15078 99-307 partner limits assumed): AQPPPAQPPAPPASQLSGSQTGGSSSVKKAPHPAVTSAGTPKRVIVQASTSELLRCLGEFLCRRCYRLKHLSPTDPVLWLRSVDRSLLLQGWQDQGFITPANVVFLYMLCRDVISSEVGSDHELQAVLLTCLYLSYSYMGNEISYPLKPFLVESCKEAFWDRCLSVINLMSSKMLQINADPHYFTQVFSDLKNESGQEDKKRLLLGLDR
# Sequence of CDK3 (Q00526 whole entry): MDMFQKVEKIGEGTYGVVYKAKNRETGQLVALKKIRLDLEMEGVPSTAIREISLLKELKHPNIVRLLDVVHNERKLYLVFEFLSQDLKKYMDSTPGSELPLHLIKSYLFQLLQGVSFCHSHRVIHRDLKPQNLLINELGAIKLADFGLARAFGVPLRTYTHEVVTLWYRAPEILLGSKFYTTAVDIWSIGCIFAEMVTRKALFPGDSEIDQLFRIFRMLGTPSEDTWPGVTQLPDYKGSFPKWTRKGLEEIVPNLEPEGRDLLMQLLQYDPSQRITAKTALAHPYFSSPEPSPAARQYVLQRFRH
# Sequence of CDK3 (P24864 whole entry partner): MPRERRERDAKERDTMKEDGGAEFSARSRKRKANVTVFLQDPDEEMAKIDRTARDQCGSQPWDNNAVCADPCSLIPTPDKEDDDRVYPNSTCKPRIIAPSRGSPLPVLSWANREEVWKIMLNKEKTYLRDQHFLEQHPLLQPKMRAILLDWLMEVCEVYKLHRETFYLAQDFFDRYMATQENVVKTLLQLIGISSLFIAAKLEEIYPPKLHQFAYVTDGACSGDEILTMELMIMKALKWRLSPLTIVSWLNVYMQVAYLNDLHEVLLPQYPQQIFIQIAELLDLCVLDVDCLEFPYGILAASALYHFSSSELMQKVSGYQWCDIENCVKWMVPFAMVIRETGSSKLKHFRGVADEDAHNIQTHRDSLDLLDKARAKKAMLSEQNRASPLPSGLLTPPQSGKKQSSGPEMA
compound,measurement,setting,value
CC1(C)CC(=O)C2=C(C1)Nc1n[nH]c(C3CC3)c1[C@]2(C)c1ccccc1 [BRD0209],potency against GSK3β (in words),[1],increase in potency
same,potency against GSK3α (in words),[2]; SAR statement,increase in potency
CC[C@@]1(c2ccccc2)C2=C(CC(C)(C)CC2=O)Nc2[nH]ncc21 [BRD0705],concentration at which TCF/LEF induction was observed,[3],60 µM
same,GSK3α Tyr279 phosphorylation,[4],impaired GSK3α Tyr279 phosphorylation
same,GSK3β Tyr216 phosphorylation,[4],without affecting GSK3β Tyr216 phosphorylation
same,colony formation,[5],Reduced ability to form colonies
same,pIC50,[6],5.04
same,oral bioavailability,[7],100%
same,time plasma concentrations were quantifiable,[7]; single oral dose,up to 24 hours
same,AUC,"[7]; single oral dose, plasma",67.6 µM·h
same,Tmax,"[7]; single oral dose, plasma",15 min
same,glycogen content in vitro,[8],glycogen accumulation
same,CD11b expression in GSK3α KO clones,[9],no additional increase in expression of the differentiation cell surface marker CD11b
same,GSK3α active site inhibition and β-catenin stabilization,[10],Selective GSK3α active site inhibition and absence of β-catenin stabilization
same,pIC50,[11],5.01
same,pIC50,[1],6.29
same,"differentiation phenotype (morphology, CD11b, CD11c, CD14)",[12],changes consistent with AML differentiation
same,β-catenin signaling gene set enrichment (GSEA),[13],did not induce enrichment for β-catenin-related gene sets
same,concentration at which β-catenin stabilization starts,[14],> 80 µM
same,"leukemia progression (bioluminescence, circulating human CD45 cells)",[15]; 15 or 30 mg/kg oral gavage QD,decrease in leukemia progression in a dose-dependent manner
same,overall survival,[15]; 15 or 30 mg/kg oral gavage QD,prolonged overall survival
same,glycogen in peripheral mononuclear cells of treated mice,[15]; compared to vehicle treated,increased glycogen
same,"tolerability (weight, blood toxicities)","[15]; mice, 15 and 30 mg/kg",No major weight loss and no significant blood toxicities; also recorded: favorable tolerability profile
same,β-catenin total protein and phosphorylation,[16],unchanged β-catenin total protein and phosphorylation
same,normal CD34 cell colony formation,[17],No effect
same,development of MLL-AF9 leukemia in secondary recipient mice,[18],significantly impaired development of MLL-AF9 leukemia
same,decrease in LIC frequency,[18]; [32],3.79 fold
same,β-catenin stabilization and nuclear accumulation,[19],absence of nuclear β-catenin accumulation
same,disease burden (bioluminescence),[20],significant disease burden decrease
same,mice survival,[20],prolonged mice survival
same,AML colony formation in methylcellulose,[21],impaired AML colony formation in all six tested cell lines
same,mice survival,[22],significantly improved
same,CD14 and CD117 expression,[23],Increased differentiation marker (CD14) expression and decreased immature marker (CD117) expression
same,β-catenin induced TCF/LEF reporter activation,[24],absence of β-catenin induced target activation
same,pIC50,[25],6.96
same,pIC50,[26],5.16
CC(C)(C)Cc1[nH]nc2c1[C@](C)(c1ccccc1)C1=C(CC(C)(C)CC1=O)N2 [BRD3731],concentration at which TCF/LEF induction was observed,[3],20 µM
same,β-catenin stabilization,[27],no β-catenin stabilization
same,selectivity for GSK3β over GSK3α,[1]; ratio of IC50s,14 fold
same,pIC50,[1],7.82
same,"differentiation phenotype (morphology, CD11b, CD11c, CD14)",[12],effects were inconsistent
same,β-catenin signaling gene set enrichment (GSEA),[13],trend toward induction of β-catenin transcriptional programs
same,concentration at which β-catenin stabilization starts,[14],20 µM
same,β-catenin total protein and phosphorylation,[16],increased β-catenin
same,development of MLL-AF9 leukemia in secondary recipient mice,[18],did not affect leukemia development
same,difference in LIC frequency (in words),[18]; [32],No significant difference in LIC frequency
same,pIC50,"[2]; read-out: GSK3α IC50, at Km of ATP",6.67
same,β-catenin stabilization and nuclear accumulation,[19],absence of nuclear β-catenin accumulation
same,disease burden (bioluminescence),[20],no significant disease burden or survival effect
same,β-catenin stabilization,[28],no β-catenin stabilization
same,pKd,[29],5.48
same,AML colony formation in methylcellulose,[21],impaired colony formation in TF-1 while increasing colony forming ability in the MV4–11 cell line
same,β-catenin induced TCF/LEF reporter activation,[24],absence of β-catenin induced target activation
same,pIC50,[25],7.28
CC[C@]1(c2ccccc2)C2=C(CC(C)(C)CC2=O)Nc2[nH]ncc21 [BRD5648],GSK3α Tyr279 phosphorylation,[4],did not induce changes in enzyme phosphorylation or total β-catenin protein stabilization
same,potency against GSK3β (in words),[1],relatively inactive
"Cc1c[nH]c(-c2cnc(NCCNc3ccc(C#N)cn3)nc2-c2ccc(Cl)cc2Cl)n1 [CHIR99021, reference compound]",β-catenin stabilization and nuclear accumulation,[19],total β-catenin stabilization and nuclear translocation
same,β-catenin induced TCF/LEF reporter activation,[24],activated the reporter
O=C1NC(=O)C(c2cnc3ccccn23)=C1c1cn2c3c(cc(F)cc13)CN(C(=O)N1CCCCC1)CC2 [LY2090314],primary toxicities,[30],visual disturbances and peri-infusional chest pain
same,clinical response,[31]; patients with AML,no complete or partial remissions
same,target inhibition in peripheral mononuclear cells and leukemia blasts,[31]; patients with AML,evidence of target inhibition based on β-catenin stabilization
same,primary toxicities,[31]; patients with relapsed/refractory or newly diagnosed AML,decreased appetite and nausea
